The target of assay [1] is T1, human CB1 receptor (Homo sapiens, UniProt P21554).
T1 construct: host or cells: CHO-K1 (Chinese hamster ovary) cells, membrane preparation
The assay can be described thus: CB1 radioligand competitive binding assay ([3H]CP 55,940 displacement). As to conditions: for IC50: membranes of CHO-K1 cells expressing human CB1 receptor, 0.8 nM [3H]CP 55,940.

Assay [2] concerns the target T2, human CB2 receptor (Homo sapiens, UniProt P34972).
T2 construct: host or cells: CHO-K1 (Chinese hamster ovary) cells, membrane preparation
Put plainly: CB2 radioligand competitive binding assay ([3H]CP 55,940 displacement). The note with it: for Selectivity CB2 (fold difference in selectivity between CB1 and CB2 binding): given in the column of the receptor with the higher binding affinity, 1.00 in both = about the same affinity; for IC50: membranes of CHO-K1 cells expressing human CB2 receptor, 0.6 nM [3H]CP55,940. As to the method:
The membranes were prepared from CHO-K1 (Chinese hamster ovary) cells stably transfected with the human CB2 receptor (Cat. #ES-111-C; Perkin Elmer, Boston, MA). The cells were grown adherently and maintained in Ham's F12 medium containing 10% fetal bovine serum (FBS), penicillin, streptomycin and geneticin (G418) at 37° C. in a humid atmosphere of 5% CO2 following the manufacturer's instructions.
For membrane preparation the cells were washed with PBS and scraped off the plates in cold homogenization buffer (25 mM HEPES (pH 7.4), 2 mM EDTA) containing protease inhibitor cocktail (Sigma Cat. #P8340). The cell suspension was homogenized with a Pro-PK-01200D Polytron Homogenizer (Pro Scientific) and then centrifuged for 30 min at 120,000×g. The supernatant was discarded and the pellet was re-suspended in the homogenization buffer and stored at −80° C. until the time of use.
In this experiment, 3H radiolabeled CP 55,940, i.e. [3H]CP 55,940 (Perkin Elmer, Boston, MA), was used as a radioligand for the CB2 receptor to determine the binding affinity of compounds for the CB2 receptor (Scheme 4; above).
The competition binding experiments (single dose and dose-response) were performed by incubating 0.6 nM of [3H]CP55,940 (specific activity 101 Ci/mmol, Perkin Elmer) and different concentrations of compounds disclosed herein with membranes prepared as above from CHO-K1 cells expressing human CB2 receptor (1 μg of protein/well), 50 mM Tris-HCl (pH 7.4), 5 mM MgCl2, 1 mM CaCl2, and 2 mg/mL BSA.
For the single dose experiments, the compound stocks (usually 10 mM in DMSO) were diluted to working stocks in the binding buffer to give the final compound concentrations of 10 μM and 1 μM. For the dose-response experiments the test compounds were sequentially diluted to provide the desired concentration range for the IC50 determination. In each case the compounds were pre-incubated with the membrane for 20 min, before adding the radioligand.
After incubation with the radioligand for 60 min at 37° C., the incubation was terminated by rapid filtration of assay mixture through MultiScreen®HTS^+ 96-well filter plates (Millipore, Cat. #MSFCNXB), pre-soaked for 60 min with 50 mM Tris-HCl (pH 7.4) containing 0.33% polyethylenimine (PEI). The nonspecific binding (NSB) was determined in the presence of 10 μM unlabelled CP55,940. After drying the filter plate at 50° C. for at least 60 min, the filter-bound radioactivity was determined by scintillation spectrometry using the 1450 MicroBeta Plate Counter (Perkin Elmer, Boston, MA). From the dose-response experiments, the IC50 values were determined (see Table 1, CB2 IC50).

In assay [3] the target is T1, human CB1 receptor. The assay can be described thus: PathHunter β-Arrestin functional assay, CB1 receptor, agonist mode. In kind it is cell-based. The note with it: PathHunter CHO-K1 CNR1 β-Arrestin cells, normalized to CP55,940.
Assay [4] deals with T1, human CB1 receptor. The assay can be described thus: PathHunter β-Arrestin functional assay, CB1 receptor, antagonist mode. In kind it is cell-based. As to conditions: range stated for the group of compounds, read-out: IC50 towards human CB1 receptor in antagonist mode.

The structures appear in SMILES notation. Some results are limits rather than exact numbers.

One may read the IC50 as the concentration that inhibits the measured activity by half.

T1 sequence (P21554 whole entry): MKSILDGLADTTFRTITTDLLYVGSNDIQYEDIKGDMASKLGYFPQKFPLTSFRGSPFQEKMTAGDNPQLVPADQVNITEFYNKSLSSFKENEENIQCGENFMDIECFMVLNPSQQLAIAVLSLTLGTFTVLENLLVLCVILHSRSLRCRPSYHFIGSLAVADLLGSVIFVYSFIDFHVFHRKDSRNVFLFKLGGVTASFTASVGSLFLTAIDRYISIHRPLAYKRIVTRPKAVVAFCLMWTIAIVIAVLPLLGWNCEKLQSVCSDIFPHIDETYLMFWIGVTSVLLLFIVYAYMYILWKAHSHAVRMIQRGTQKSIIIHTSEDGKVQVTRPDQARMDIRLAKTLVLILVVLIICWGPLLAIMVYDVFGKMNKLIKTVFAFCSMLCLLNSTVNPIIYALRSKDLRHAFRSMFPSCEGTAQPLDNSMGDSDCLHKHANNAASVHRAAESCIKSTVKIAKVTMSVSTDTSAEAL
T2 sequence (P34972 whole entry): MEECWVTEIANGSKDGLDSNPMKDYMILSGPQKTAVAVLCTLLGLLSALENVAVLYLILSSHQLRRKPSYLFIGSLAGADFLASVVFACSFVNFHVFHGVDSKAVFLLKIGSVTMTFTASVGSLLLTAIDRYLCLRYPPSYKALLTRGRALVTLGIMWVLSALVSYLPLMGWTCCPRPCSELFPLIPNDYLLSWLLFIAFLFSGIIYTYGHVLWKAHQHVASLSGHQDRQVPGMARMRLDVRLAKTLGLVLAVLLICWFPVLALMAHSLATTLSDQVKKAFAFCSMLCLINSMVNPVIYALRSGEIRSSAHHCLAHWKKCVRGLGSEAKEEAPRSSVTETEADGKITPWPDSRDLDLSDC

In the case of `CCCCCc1cc(OP(=O)(OCC)c2ccccc2)c(-c2cccc(C)c2)c(OP(=O)(OCC)c2ccccc2)c1` (stereo not drawn) [34′a, diethyl (3′-methyl-4-pentyl-[1,1′-biphenyl]-2,6-diyl) bis(phenylphosphonate)], the IC50 in assay [1] and in assay [2] was 1 to 4.99 µM in each case. Moreover, the “Selectivity CB2 (fold difference in selectivity between CB1 and CB2 binding)” value in assay [2] is given as 1.95 fold.
Take `CCCCCc1cc(O)c(C2C=C(C)CCC2)c(OP(=O)(Cc2ccccc2)OC)c1` (stereo not drawn) [Example 4c, 6-hydroxy-5′-methyl-4-pentyl-1′,2′,3′,4′-tetrahydro-[1,1′-biphenyl]-2-yl methyl benzylphosphonate]: the IC50 in assay [1] and in assay [2] was 1 to 4.99 µM each time. In addition, the “Selectivity CB2 (fold difference in selectivity between CB1 and CB2 binding)” value in assay [2] was 1.54 fold.
For the compound `C=C(C)C1CCC(C)=CC1c1c(O)cc(CCCCC)cc1OP(=O)(Cc1ccccc1)OC` (stereo not drawn) [Example 4d, 6-hydroxy-5′-methyl-4-pentyl-2′-(prop-1-en-2-yl)-1′,2′,3′,4′-tetrahydro-[1,1′-biphenyl]-2-yl methyl benzylphosphonate], in assay [1] (given in the column of the receptor with the higher binding affinity, 1.00 in both = about the same affinity), the “Selectivity CB1 (fold difference in selectivity between CB1 and CB2 binding)” value amounted to 1.00 fold. Further, the results for the IC50 in assay [1], in assay [2] and in assay [4] were under 0.5 µM, under 0.5 µM and 0.78 to 3 µM, respectively. In assay [2], the “Selectivity CB2 (fold difference in selectivity between CB1 and CB2 binding)” value turned out to be 1.00 fold. For the same compound, the “activity towards the human CB1 receptor in agonist mode” value in assay [3] is “minimal to no activity”.
The compound `CCCCCc1cc(O)c(-c2cccc(C)c2)c(OP(=O)(OCC)c2ccccc2)c1` (stereo not drawn) [Example 34a, ethyl (6-hydroxy-3′-methyl-4-pentyl-[1,1′-biphenyl]-2-yl) phenylphosphonate] registered an IC50 in assay [1] of 1 to 4.99 µM. In assay [2], the “Selectivity CB2 (fold difference in selectivity between CB1 and CB2 binding)” value is on record as 10.26 fold; the IC50 was under 0.5 µM.
Taken in the same sequence, the figures for `CCCCCc1cc(O)c(C2C=C(C)CCC2)c(OP(=O)(OCC)c2ccccc2)c1` (stereo not drawn) [Example 34c, ethyl (6-hydroxy-5′-methyl-4-pentyl-1′,2′,3′,4′-tetrahydro-[1,1′-biphenyl]-2-yl) phenylphosphonate] were 1 to 4.99 µM, 1.69 fold and 1 to 4.99 µM.
Turning to `CCCCCc1cc(O)c(-c2cccc(C)c2)c(OP(=O)(Cc2ccccc2)OCC)c1` (stereo not drawn) [Example 35a, ethyl (6-hydroxy-3′-methyl-4-pentyl-[1,1′-biphenyl]-2-yl) benzylphosphonate], the IC50 in assay [2] was in the range of 1 to 4.99 µM.
With `CCCCCc1cc(O)c(C2C=C(C)CCC2)c(OP(=O)(Cc2ccccc2)OCC)c1` (stereo not drawn) [Example 35c, ethyl (6-hydroxy-5′-methyl-4-pentyl-1′,2′,3′,4′-tetrahydro-[1,1′-biphenyl]-2-yl) benzylphosphonate], the IC50 was at least 5 µM in assay [1] and 1 to 4.99 µM in assay [2]. In assay [2], the “Selectivity CB2 (fold difference in selectivity between CB1 and CB2 binding)” value was determined as 3.25 fold.
As to `CCCCCCC(C)(C)c1cc(O)c(C2C=C(C)CCC2)c(OP(=O)(OC)c2ccccc2)c1` (stereo not drawn) [Example 37c, 6-hydroxy-5′-methyl-4-(2-methyloctan-2-yl)-1′,2′,3′,4′-tetrahydro-[1,1′-biphenyl]-2-yl methyl phenylphosphonate], the “activity towards the human CB1 receptor in agonist mode” value in assay [3] was “minimal to no activity”. Besides, the IC50 in assay [4] fell in the range of 0.78 to 3 µM.
For the compound `C=C(C)C1CCC(C)=CC1c1c(O)cc(C(C)(C)CCCCCC)cc1OP(=O)(OC)c1ccccc1` (stereo not drawn) [Example 37d, 6-hydroxy-5′-methyl-4-(2-methyloctan-2-yl)-2′-(prop-1-en-2-yl)-1′,2′,3′,4′-tetrahydro-[1,1′-biphenyl]-2-yl methyl phenylphosphonate], the IC50 in assay [1] was 0.5 to 0.99 µM; in assay [2], under 0.5 µM; in assay [4], 0.78 to 3 µM. In assay [2], the “Selectivity CB2 (fold difference in selectivity between CB1 and CB2 binding)” value is reported as 2.02 fold. Also, in assay [3], the “activity towards the human CB1 receptor in agonist mode” value is reported as “minimal to no activity”.
For `CCCCCCC(C)(C)c1cc(O)c(C2C=C(C)CCC2)c(OP(=O)(Cc2ccccc2)OC)c1` (stereo not drawn) [Example 38c, 6-hydroxy-5′-methyl-4-(2-methyloctan-2-yl)-1′,2′,3′,4′-tetrahydro-[1,1′-biphenyl]-2-yl methyl benzylphosphonate], in that order: 1 to 4.99 µM, 0.5 to 0.99 µM, 0.78 to 3 µM, 4.96 fold and “minimal to no activity”.
For `C=C(C)C1CCC(C)=CC1c1c(O)cc(C(C)(C)CCCCCC)cc1OP(=O)(Cc1ccccc1)OC` (stereo not drawn) [Example 38d, 6-hydroxy-5′-methyl-4-(2-methyloctan-2-yl)-2′-(prop-1-en-2-yl)-1′,2′,3′,4′-tetrahydro-[1,1′-biphenyl]-2-yl methyl benzylphosphonate], in that order: 0.5 to 0.99 µM, under 0.5 µM, 0.78 to 3 µM, 1.82 fold and “minimal to no activity”.
Regarding `C=C(C)C1CCC(C)=CC1c1c(O)cc(C(C)(C)CCCCCC)cc1OP(=O)(Cc1ccccc1)OCC` (stereo not drawn) [Example 39d, ethyl (6-hydroxy-5′-methyl-4-(2-methyloctan-2-yl)-2′-(prop-1-en-2-yl)-1′,2′,3′,4′-tetrahydro-[1,1′-biphenyl]-2-yl) benzylphosphonate], the IC50 in assay [1] fell in the range of 0.5 to 0.99 µM. Besides, in assay [2], the “Selectivity CB2 (fold difference in selectivity between CB1 and CB2 binding)” value is given as 1.10 fold; the IC50 is 0.5 to 0.99 µM.

These data come from patent US12252503B2, “Cannabinoid derivatives” (priority 2019, dated 2025).
